Assay results from patent US11793881B2, “Polyethylene glycol conjugate medicament, preparation method therefor and use thereof” (CHONGQING UPGRA BIOTECHNOLOGY CO., LTD., priority 2019, dated 2023).

Tested on: human breast cancer BT474 cells
Procedure: Test sample diluent: a proper amount of PEG300 and absolute alcohol was taken, and sodium chloride injection was added to make that the content of PEG300 and absolute alcohol was 20% (v/v).
Test samples: 41-32, 41-40 and 39-55 were respectively taken in a proper volume, and a proper amount of each of the test sample diluent was added, to respectively prepare solutions with the concentrations of 8.3 mg/mL, 4.6 mg/mL and 5.5 mg/mL.
An estrogen sustained-release tablet (17 beta-ESTRADIOL, product No.: SE-121, Innovative Research of America) was embedded under the skin at the neck back of NPG mice before cell inoculation. A BT474 cell suspension with the concentration of 7.5×10^7/mL and a Matrigel Basement membrane Matrix (BD Co.) were mixed according to the volume ratio of 1:1 to obtain a cell suspension with the concentration of 3.75×10^7/mL. 0.2 mL of the cell suspension was inoculated into the right mammary fat pad of the mice. The tumor growth was observed after inoculation, and 36 tumorigenic animals with the tumor volume of 66.83-324.35 mm^3 were finally screened and used for the test.
The negative control, SB7, 41-32, 41-40 and 39-55 were intravenously injected; LPT was intragastrically administered.

[1] = end of experiment (D29), doses as in E38

SMILES: CS(=O)(=O)CCNCc1ccc(-c2ccc3ncnc(Nc4ccc(OCc5cccc(F)c5)c(Cl)c4)c3c2)o1 [LPT, Lapatinib]
- animals died during the experiment (6 animals per group, LPT 20 mg/kg i.g. (D19), SB7+LPT 5+5.6 mg/kg (D15, D25)): 1
- average tumor weight (after euthanasia (D29), doses as in E38): 1.226 ± 0.370 g
- inhibition effect on tumor growth (conclusion) (doses as in E38): certain inhibition effects
- average tumor volume (end of experiment (D29), LPT 20 mg/kg i.g. and 41-32 83 mg/kg i.v. every 3 days, SB7+LPT 5+5.6 mg/kg, 41-40 46 mg/kg i.v., 39-55 55 mg/kg i.v. one time/week, 4 weeks): 1313.80±241.46 mm^3
- average RTV (relative tumor volume) [1]: 8.13±2.92
- relative tumor proliferation rate T/C % [1]: 54.27%
- tumor weight inhibition rate IRTW % (from tumor weights after euthanasia (D29), b1725, doses as in E38): 32.15%
